From US11560417B2, “Isolated polypeptides of CD44 and uses thereof” (Yissum Research Development Company of the Hebrew …, priority 2014, dated 2023)
Ends that are not written are not given here. Peptide text beside a SMILES is read from it.

Assays:
[1] = tested on: fibroblasts from the inflammatory joint of an RA patient; format: cell-based, human
Procedure: Cells—Fibroblasts from the inflammatory joint of an RA patient were cultured and maintained as shown in Bendersky et al, J Immunol.; 188:4349-59, 2012. A quantity of 20,000 cells was added to each one of the 96 well plates with the indicated concentrations of peptide, serum amyloid A or α-lactalbumin.
MTT assay—MTT assay was effected as shown in Madhyastha et al. (2015) J Clin Diagn Res.; 9 :ZCO5-8.
An in-vitro model was developed as a tool to evaluate the biological activity of the generated RA peptides. To this end, fibroblasts from the inflammatory joint of an RA patient were incubated in-vitro and the effect of the peptides on cell survival was evaluated by a MTT assay.

[2] = tested on: CIA mice on C57BL/6 background; experiment: ELISA for neutralizing anti-peptide antibodies in serum of treated CIA mice; format: in vivo, mouse; settings: 70 μg per injection i.p., 10 consecutive days; ELISA plates coated with peptide
Procedure: Treatment protocol—PBS, or 5-mer RA peptide (SEQ ID NO: 1) at a dose of 70 μg per injection were administered i.p to CIA mice on C57BL/6 background for 10 consecutive days. In all groups first injection was given at the onset of disease as determined by paw swelling.
ELISA—96 wells ELISA plates were coated with 5-mer RA peptide (SEQ ID NO: 1), collagen or immunoglobulin (positive control). Serum from CIA mice treated with PBS or the 5-mer RA peptide was added to the coated plates and the presence of neutralizing antibodies against collagen or the RA peptide was detected with anti-immunoglobulin+detection system. The plate wells were coated with 1 mg/ml peptide or protein. Mouse serum was added to the plate wells for 15 hours in cold temperature. The detection system included HRP-anti-mouse IgG and TMB (Bako) substrate. Plates were analysed using an ELISA reader at a wave length of 450 nm.

[3] = tested on: C57BL/6 mice; experiment: Delayed type hypersensitivity (DTH) response to oxazolone; format: in vivo, mouse; settings: oxazolone sensitization day 0, elicitation day 6, reading day 7; peptide 200 μg daily
Procedure: DTH model—C57BL/6 mice were painted at their abdomen with oxazolone solution (sensitization). On day 6, the right ear of each mouse was painted with the same hapten, oxazolone (elicitation), to generate delayed type hypersensitivity (DTH) response. The differences in thickness between the right and the left ears, indicating DTH development, were determined by microcaliper 24 hours later. DTH induction indicates a normal immune response. For additional details see Weiss et al., (2000) Proc. Natl. Acad. Sci. USA. 97, 285-290.
Treatment protocol—PBS and 5-mer peptide (SEQ ID NO: 1) at a dose of 200 μg was administered one day before the sensitization and then every day during the sensitization period (7 days).

[4] = tested on: CIA mice on DBA/1 background; experiment: Paw swelling in collagen-induced arthritis (CIA) mice on DBA/1 background; format: in vivo, mouse; settings: for joint inflammation (paw swelling) vs PBS / hind paws that remained healthy (paw swelling less than 2 mm): 200 μg per injection i.p.; for joint inflammation (paw swelling) vs PBS: daily for 9-10 days from onset of disease; for hind paws that remained healthy (paw swelling less than 2 mm): daily for 9 days, CIA DBA/1 mice; for paw swelling response vs PBS: 4 times within 6 days from onset of disease
Procedure: (§1) Mice—Collagen-induced arthritis (CIA) was generated in DBA/1 or C57BL mice by injection of type II collagen as described in Nedvetzki et al., PNAS 101, 18081-18086, 2004.
Treatment protocol—PBS, or the 9-mer RA peptide (SEQ ID NO: 3) at a dose of 25 μg, 100 μg or 150 μg per injection was administered i.p to CIA mice for 4 times within 6 days (see Table 3 below). PBS (n=7), or 5-mer RA peptide (SEQ ID NO: 1, n=7) at a dose of 70 μg per injection were administered i.p to CIA mice on C57BL/6 background for 10 consecutive days. In all groups first injection was given at the onset of disease as determined by paw swelling.
(§2) Evaluation of joint inflammation—Inflammation was evaluated by the paw swelling response. Paw swelling was measured by micro caliber. Paw swelling at range of 2.1-2.3 mm was considered “onset of disease” and the starting point for injection of the peptides. […] All measurements were performed under blind manner (For additional details see Nedvetzki, et al., (2004) PNAS 101, 18081-18086).
(§3) Treatment protocol—PBS, or the tested peptides [Ac-TRMTADVDR-NH2 (SEQ ID NO: 6), Ac-MTADVDR-NH2 (SEQ ID NO: 5), Ac-MTADV-NH2 (SEQ ID NO: 4) and scrambled Ac-TMDVADR-NH2 (SEQ ID NO: 7)] at doses of 70 or 200 μg per injection were administered i.p to […] for 9-10 consecutive days (see Tables 4-7 below). As a non-specific control, several mice were administered I.P. with Dexamethsone (Dex) at a dose of 50 μg, following the same protocol. In all groups first injection was given at the onset of disease as determined by paw swelling.
Evaluation of joint inflammation—As described in Example 2 above. Paw swelling of less than 2 mm was considered healthy.

[5] = tested on: CIA mice on C57BL/6 background; experiment: Paw/footpad swelling in CIA mice on C57BL/6 background; format: in vivo, mouse; settings: 10 consecutive days; for joint inflammation (paw swelling) vs PBS: 70 μg per injection i.p.
Procedure: as §1, §2, §3
Treatment protocol—PBS, or the tested peptide [Ac-MTADV-NH2 (SEQ ID NO: 4)] at doses of 10, 25, 70, 200 or 600 μg per injection were administered i.p to CIA mice for 10 consecutive days (see Tables 8-9 below). In all groups first injection was given at the onset of disease as determined by paw swelling.
To evaluate the optimal anti-inflammatory therapeutic dose of the 5-mer RA peptide, several different doses of the protected peptide (SEQ ID NO: 4) were administered to CIA mice on C57BL/6 background and joint inflammation was determined by footpad swelling measurements (electronic automatic measurements of the volume of the footpad, based on Archimedes observation).

CSCC[C@H](N)C(=O)N[C@H](C(=O)N[C@@H](C)C(=O)N[C@@H](CC(=O)O)C(=O)N[C@H](C(=O)O)C(C)C)[C@@H](C)O [5-mer RA peptide, MTADV] (H-MTADV-OH)
in-vitro maximal suppressive effect on cell survival [1]: 60% | neutralizing antibodies to the peptide in serum [2]: no neutralizing antibodies | DTH response (difference in thickness between right and left ears) vs PBS [3]: did not affect the DTH response

Ac-MTADV-NH2 [5-mer protected RA peptide]
suppressive effect on cell survival compared to the 5-mer RA peptide (SEQ ID NO: 1) ([1]; MTT assay): improved the suppressive effect | joint inflammation (paw swelling) vs PBS [4]: reduces joint inflammation | joint inflammation (footpad swelling) vs PBS ([5]; 10 μg per injection i.p.): did not induce a significant anti-inflammatory effect | joint inflammation (footpad swelling) vs PBS ([5]; 25 μg per injection i.p.): did not induce a significant anti-inflammatory effect | joint inflammation (paw swelling) vs PBS [5]: reduced the joint inflammation | joint inflammation (paw swelling) vs PBS ([5]; listed as 5-mer protected peptide): significantly inhibit joint inflammation | joint inflammation (footpad swelling) vs PBS ([5]; 200 μg per injection i.p.): reduced the joint inflammation | joint inflammation (footpad swelling) vs PBS ([5]; 600 μg per injection i.p.): reduced the joint inflammation | optimal and lowest dose for CIA inhibition ([5]; doses 10-600 μg i.p.): 70 μg per injection

Ac-MTADVDR-NH2 [7-mer protected RA peptide]
joint inflammation (paw swelling) vs PBS [4]: reduces joint inflammation | hind paws that remained healthy (paw swelling less than 2 mm) [4]: more than 60%

Ac-TMDVADR-NH2 [reference compound]
joint inflammation (paw swelling) vs PBS [4]: no effect on footpad swelling | hind paws that remained healthy (paw swelling less than 2 mm) [4]: 33%

Ac-TRMTADVDR-NH2 [9-mer protected RA peptide]
joint inflammation (paw swelling) vs PBS [4]: reduce joint inflammation

TRMTADVDR (not fully specified (C-terminus)) [9-mer RA peptide]
paw swelling response vs PBS ([4]; 25 μg per injection i.p.): did not show significant difference in paw swelling response | paw swelling response vs PBS ([4]; 100 μg per injection i.p.): did not show significant difference in paw swelling response | paw swelling response vs PBS ([4]; 150 μg per injection i.p.): significant reduction in paw swelling

B1: Serum Amyloid A (SAA): Serum Amyloid A protein added to the fibroblast culture in combination with the 5-mer peptide (protein)
chain: RSFFSFLGEAFDGARDMWRAYSDMREANYIGSDKYFHARGNYDAAKRGPGGAWAAEVITDARENIQRFFGHGAEDSLADQAANEWGRSGKDPNHFRPAGLPEKY
effect on the 5-mer peptide's inhibition of cell survival ([1]; 50 μg/ml added in combination with the 5-mer peptide): prevents this inhibition | effect on the 5-mer peptide's reduction of fibroblast survival ([1]; escalating concentrations, 5-mer peptide constant at 25 μg/ml): gradually prevented this reduction
